8 molecules from patent publication US8778890B2, “Leptin antagonist and methods of use” (Temple University—of the Commonwealth System of Higher …, priority 2009, dated 2014) can be followed below.

Read-outs that look alike come from different tables or passages of the source. Where a SMILES comes first, the peptide text is derived from it. Where no end group is shown, it is not given here. [ ]: non-standard residue; d: D form. NMeR = CN[C@@H](CCCNC(=N)N)C(=O)O; aThr = C[C@H](O)[C@H](N)C(=O)O; Nva = CCC[C@H](N)C(=O)O; Ahx = NCCCCCC(=O)O; βAla = NCCC(=O)O

The nature of series [1]: weight gain of growing mice. Type of series: in vivo. The procedure:
Six weeks old Black/6 mice (mixed race) and F344 female rats were grown on regular lab chow and had access to food and water ad libidum. Treatment started at day 0, with four mice (2 males and 2 females) and 4 rats per group. The animals received the peptide of amino acid sequence SEQ ID NO:4 or physiological salt solution once daily. The mice and rats were dosed according to the following schedule: • Group 1: Mice, salt solution intraperitoneally; • Groups 2 and 3: Mice 0.1 mg/kg/day or 0.01 mg/kg/day peptide of amino acid sequence SEQ ID NO:4 intraperitoneally in 100 microliter salt solution; • Groups 4 and 5: Mice 1 mg/kg/day or 0.1 mg/kg/day peptide of amino acid sequence SEQ ID NO:4 subcutaneously (under the shoulder blade) in 100 microliter salt solution; • Groups 6 and 7: Mice 10 mg/kg/day or 1 mg/kg/day peptide of amino acid sequence SEQ ID NO:4 orally in 100 microliter salt solution; • Group 8: Rats, 10 microliter salt solution, intranasally; • Group 9: Rats. 0.1 mg/kg/day peptide of amino acid sequence SEQ ID NO:4 intranasally in 10 microliter salt solution. […]
The therapeutic utility of full ObR antagonists was studied further by the ability of peptide of amino acid sequence SEQ ID NO:4 to increase the appetite of normal, growing mice as measured by accelerated weight gain and increased food intake upon various modes of peptide administration. […]

The subject of series [2] is ObR-positive cancer cells (brain and breast). Type of series: cell-based. The procedure:
The effect of the peptides of the invention on the proliferation of ObR-positive cancer cells (brain and breast) in the presence (IC50) or absence (EC50) of exogenous leptin protein (6 nM) is summarized in Table 1.

In series [3] the test system is MCF-7 breast cancer cells (ObR-positive). Type of series: cell-based, human. From the text:
(§1) Immunol. Methods 94:57-63).

The test system of series [4] is LN229 (glioma) cells (ObR-positive). Type of series: cell-based. As to conditions: 2 h.
Source text: as §1

A further series in a line: serum stability. Type of series: in vitro ADME, mouse. The procedure: The stabilities of the peptides of amino acid sequence SEQ ID NO:4 and SEQ ID NO:49 were determined in 25% serum, and 100% serum, in terms of their half-lives. For serum stability studies, […] of an aqueous peptide stock solution, containing about 0.8 mg/mL peptide, were added to 2.5 mL of 25% or 100% aqueous pooled mouse serum. The peptide-serum mixture was thermostated at 37° C. After 0 min, 45 min, 60 min, 90 min, 2 h, 4 h, and 8 h, three 210 μL of the samples of peptides were taken and precipitated by the addition of 40 μL of 15% aqueous trichloroacetic acid. The samples were stored at 4° C. for 20 min and centrifuged. The supernatants were immediately frozen in dry-ice, and […], of each were analyzed on RP-HPLC and/or MALDI-MS.

Series [5] in a line: organ toxicity testing after 14 days of treatment (Example 4). The note with it: any conditions. It is filed as in vivo, mice and rats. The procedure: Six weeks old Black/6 mice (mixed race) and F344 female rats were grown on regular lab chow and had access to food and water ad libidum. Treatment started at day 0, with four mice (2 males and 2 females) and 4 rats per group. The animals received the peptide of amino acid sequence SEQ ID NO:4 or physiological salt solution once daily. The mice and rats were dosed according to the following schedule: • Group 1: Mice, salt solution intraperitoneally; • Groups 2 and 3: Mice 0.1 mg/kg/day or 0.01 mg/kg/day peptide of amino acid sequence SEQ ID NO:4 intraperitoneally in 100 microliter salt solution; • Groups 4 and 5: Mice 1 mg/kg/day or 0.1 mg/kg/day peptide of amino acid sequence SEQ ID NO:4 subcutaneously (under the shoulder blade) in 100 microliter salt solution; • Groups 6 and 7: Mice 10 mg/kg/day or 1 mg/kg/day peptide of amino acid sequence SEQ ID NO:4 orally in 100 microliter salt solution; • Group 8: Rats, 10 microliter salt solution, intranasally; • Group 9: Rats. 0.1 mg/kg/day peptide of amino acid sequence SEQ ID NO:4 intranasally in 10 microliter salt solution.
After 14 days the animals were sacrificed and their liver, brain, kidneys and spleen were submitted for toxicity testing.

The nature of series [6]: chronic and acute toxicity. It is filed as in vivo, mice. On the procedure: The peptide of amino acid sequence SEQ ID NO:4 was evaluated for chronic and acute toxicity in mice. Three female Black/6 mice received intraperitoneally either bolus 0.5 mg/kg or 2 mg/kg or 30 mg/kg peptide SEQ ID NO:4, or 0.5 mg/kg/day or 2 mg/kg/day peptide SEQ ID NO:4 over a 10 day period. Two days after termination of the experiments, the mice were weighed and sacrificed, and the livers, brains, spleens and kidneys were weighed.

For series [7], the system named is ObR-positive cancer cells (brain and breast). Type of series: cell-based. As to conditions: presence of exogenous leptin (6 nM).
For series [8], the system named is two brain tumor cell lines. Put plainly: leptin receptor antagonism in brain tumor cell lines. It is filed as cell-based.
For series [9] the following is noted: mouse, in vivo, ip.
Where [10] appears, read: 25% aqueous pooled mouse serum, 37° C., read-out: half-life in 25% serum.
Where [11] appears, read: 100% pooled mouse serum, 37° C., read-out: half-life in 100% serum.
Setting [12] is: ip bolus 0.5, 2 or 30 mg/kg, or 0.5 or 2 mg/kg/day for 10 days.
[13] abbreviates: mouse serum, read-out: half-life in mouse serum.

`CCC[C@H](NC(=O)[C@H](CCC(=O)O)NC(=O)[C@@H](N)[C@@H](C)O)C(=O)N[C@H](C(=O)N[C@@H](C)C(=O)N[C@@H](CC(C)C)C(=O)N[C@@H](CO)C(=O)N[C@@H](CCCNC(=N)N)C(=O)NCCCCCC(N)=O)C(C)C` [SEQ ID NO:4, Thr-Glu-Nva-Val-Ala-Leu-Ser-Arg-AcpNH2] (H-TE[Nva]VALSR[Ahx]-NH2): the “necropsy of the major organs” value in series [1] (C57BL/6 mice) is listed as “no signs of toxicity”. For the same molecule, the EC50 – broadly, the concentration needed to bring the measured effect to its halfway point – in [2] is over 1000 nM. Besides, the IC50 in [3] (2 h) and in series [4] was 2 to 3 nM in each case. Also, the half-life (commonly how long it takes for the measured level to halve) in “serum stability” (setting [10]) was 20 min; in “serum stability” (setting [11]), 5 min. Further, the “toxic effects in liver, brain, kidneys and spleen” value in series [5] is given as “No obvious toxic effects”. Besides, the NOAEL in series [6] (female, Black/6, mouse, in vivo, ip, intraperitoneal bolus, read-out: highest studied dose found not toxic, acute) amounted to 30 mg/kg. In addition, the NOAEL at 240 h in series [6] (female, Black/6, mouse, in vivo, ip, intraperitoneal, 10 days, read-out: highest studied dose found not toxic, chronic) came to 2 mg/kg/day. In addition, the “gross necropsy, treated versus non-treated” value in [6] (setting [12]) is “no alteration”. Also, the “liver, brain, spleen and kidney weights, treated versus non-treated” value in series [6] (setting [12]) was “identical”.
`CCC[C@H](NC(=O)[C@H](CCC(=O)O)NC(=O)[C@@H](CO)NC(C)=O)C(=O)N[C@H](C(=O)N[C@@H](C)C(=O)N[C@@H](CC(C)C)C(=O)N[C@@H](CO)C(=O)N(C)[C@@H](CCCNC(=N)N)C(=O)NCCC(N)=O)C(C)C` [SEQ ID NO:6, (D)-Ser-Glu-Nva-Val-Ala-Leu-Ser-N-MeArg-bAlaNH2] (Ac-[dS]E[Nva]VALS[NMeR][βAla]-NH2; N-terminus assumed): in [2], the EC50 is over 1000 nM and the pharmacology entry is reported as “super antagonist”. For the same molecule, the IC100 in series [7] is given as under 1 nM. Besides, in series [8], the agonistic activity result was “no agonistic activity” and the “cell growth without stimulation with leptin protein” value is given as “does not influence cell growth”. For the same molecule, the “IC100, antagonistic activity against the leptin receptor” value in series [8] (two brain tumor cell lines in vitro) lay within 10 to 100 pM.
As to `CCC[C@H](NC(=O)[C@H](CCCNC(=N)N)NC(=O)[C@H](CO)NC(=O)[C@H](CC(C)C)NC(=O)[C@H](C)NC(=O)[C@H](CCC)NC(=O)[C@H](CCC)NC(=O)[C@H](CCC(=O)O)NC(=O)[C@@H](N)[C@@H](C)O)C(N)=O` [SEQ ID NO:47, Thr-Glu-Nva-Nva-Ala-Leu-Ser-Arg-NvaNH2] (H-TE[Nva][Nva]ALSR[Nva]-NH2), the EC50 in series [2] is over 1000 nM. The half-life in “serum stability” (setting [13]) stood at 8 min.
Turning to `CCC[C@H](NC(=O)[C@H](CCCNC(=N)N)NC(=O)[C@H](CO)NC(=O)[C@H](CC(C)C)NC(=O)[C@H](C)NC(=O)[C@H](CCC)NC(=O)[C@H](CCC)NC(=O)[C@H](CCC(=O)O)NC(=O)[C@@H](NC(C)=O)[C@@H](C)O)C(N)=O` [SEQ ID NO:48, AcNH-Thr-Glu-Nva-Nva-Ala-Leu-Ser-Arg-NvaNH2] (Ac-TE[Nva][Nva]ALSR[Nva]-NH2), the “cell viability profile compared with the unprotected variant” value in series [3] is on record as “no change”. Moreover, the half-life in the series “serum stability” (setting [13]) was 14 min.
In turn, `CCC[C@H](NC(=O)[C@H](CCC(=O)O)NC(=O)[C@@H](N)[C@H](C)O)C(=O)N[C@H](C(=O)N[C@@H](C)C(=O)N[C@@H](CC(C)C)C(=O)N[C@@H](CO)C(=O)N[C@@H](CCCNC(=N)N)C(=O)NCCCCCC(N)=O)C(C)C` [SEQ ID NO:49, alloThr-Glu-Nva-Val-Ala-Leu-Ser-Arg-AcpNH2] (H-[aThr]E[Nva]VALSR[Ahx]-NH2) yielded an EC50 in series [2] of over 1000 nM. Besides, the half-life in the series “serum stability” (setting [10]) came out at 40 min; in “serum stability” (setting [11]), 10 min.
In the case of `CCC[C@H](NC(=O)[C@@H](N)CCC(=O)O)C(=O)N[C@H](C(=O)N[C@@H](C)C(=O)N[C@@H](CC(C)C)C(=O)N[C@@H](CO)C(=O)N[C@@H](CCCNC(=N)N)C(=O)NCCCCCC(N)=O)C(C)C` [SEQ ID NO:51, Glu-Nva-Val-Ala-Leu-Ser-Arg-AcpNH2] (H-E[Nva]VALSR[Ahx]-NH2; N-terminus assumed), in series [2], the EC50 is over 500 nM and the pharmacology result was “weak full”. For the same molecule, the IC100 in [7] stood at 100 nM.
As for “Alexa 680-labeled peptide of amino acid sequence SEQ ID NO:49: peptide of SEQ ID NO:49 labeled with the fluorescent dye Alexa 680 ([aThr]E[Nva]VALSR[Ahx]-NH2; not fully specified (N-terminus); printed as alloThr-Glu-Nva-Val-Ala-Leu-Ser-Arg-AcpNH2; also: Alexa 680 label, site not given here)”, the “migration into further tissues, blood-brain barrier penetration” value in series [9] is “migrated into the tail, limbs and the brain”.

B1: leptin: neurohormone, native ObR ligand; human leptin purchased from R&D Systems (protein, listed as Homo sapiens)
chain: VPIQKVQDDTKTLIKTIVTRINDISHTQSVSAKQRVTGLDFIPGLHPILSLSKMDQTLAVYQQVLTSLPSQNVLQIANDLENLRDLLHLLAFSKSCSLPQTSGLQKPESLDGVLEASLYSTEVVALSRLQGSLQDILQQLDVSPEC
Take B1: in [1] (0.1 mg/kg/day intraperitoneally, day 8), the “reduction of normal weight gain compared to untreated mice” value came out at 5%.
